Structures can show the parent of a compound that is named as a salt. Residues, ends and D or L forms follow the SMILES beside them.
Legend:
Assay type in all cases: in vivo, human
[1] = Evaluation of sweetness (1)/(2): presence or absence of sweetness judged by examiners
Experimental: Trans-3-octenyl sulfate was dissolved in water to be 1 wt %, which was taken as a test sample. Six examiners kept 50 μL of the prepared test sample in their mouth, and then drunk some water, and judged for presence or absence of sweetness.
Cis-3-octenyl sulfate was dissolved in water to 1 wt %, which was taken as a test sample. Four examiners kept 50 μL of the prepared test sample in their mouth, and then drunk some water, and judged presence or absence of sweetness.

[2] = Evaluation of sweetness (3)/(4): sweetness intensity over time against sucrose standard solutions
Experimental: (§1) To seven examiners, 4 kinds of 10 mL aqueous sucrose standard solutions (2.5, 5.0, 7.5 and 10.0 wt %) were presented. The examiners kept each of the solutions in their mouth for 5 seconds or so, and then spat the solution out, and were asked to consider the sweetness intensity at that time (0 to 15) to be 2.5, 5, 7.5 and 10, respectively. Next, the examiners kept 10 mL solution of 10 mM trans-3-octenyl sulfate in their mouth for 5 seconds or so, and then spat the solution out, and compared the sweetness intensity at that time with that of the aqueous sucrose standard solution, and evaluated the sweetness intensity with a number in a range of 0 to 15. Then, the examiners kept 10 mL pure water for 5 minutes at an interval of 30 seconds, and then spat the solution out, and evaluated the sweetness intensity at that time in the same manner.
as §1, with “four” for “4”, “cis-3-octenyl” for “trans-3-octenyl”, “water in their mouth” for “water”

[3] = Sweetness adjusting action on sucrose, aspartame, sucralose, glycyrrhizin (simultaneous intake); settings: sucrose 7.5 wt %, aspartame 494 ppm, sucralose 0.49 mM, glycyrrhizin 303 ppm, alone or containing 5 mM trans-3-octenyl sulfate, scale 0 to 15; for Sweetness intensity (mean) When drinking water after 30 seconds: 10 mL pure water 30 seconds after sample; for Sweetness intensity (mean) When drinking sample: 10 mL
Experimental: To seven examiners, four kinds of 10 mL aqueous sucrose standard solutions (2.5, 5.0, 7.5 and 10.0 wt %) were presented. The examiners kept each of the solutions in their mouth for 5 seconds or so, and then spat the solution out, and were asked to consider the sweetness intensity at that time (0 to 15) to be 2.5, 5, 7.5 and 10, respectively. Next, the examiners kept 10 mL aqueous solution (7.5 wt %) of sucrose in their mouth for 5 seconds or so without knowing the kind and the concentration of the sweetener, and then spat the solution out, and compared the sweetness intensity at that time with that of the aqueous sucrose standard solution, and evaluated the sweetness intensity with a number in a range of 0 to 15. In addition, after 30 seconds, the examiners kept 10 mL pure water in their mouth, and then spat the solution out, and compared the sweetness intensity felt at that time with that of the aqueous sucrose standard solution, and evaluated the sweetness intensity in the same manner. Subsequently, the examiners were presented with 10 mL aqueous sucrose solution containing 5 mM trans-3-octenyl sulfate (7.5 wt %), and kept it in their mouth for 5 seconds or so, and then spat the solution out, and compared the sweetness intensity at that time with the sweetness intensity of the aqueous sucrose standard solution, and evaluated the sweetness intensity in the same manner. In addition, immediately after that, the examiners kept 10 mL pure water in their mouth for 5 seconds or so, and then spat the solution out, and compared the sweetness intensity at that time with that of the aqueous sucrose standard solution, and evaluated the sweetness intensity in the same manner. In addition, after 30 seconds, the examiners kept 10 mL pure water in their mouth, and then spat the solution out, and compared the sweetness intensity felt at that time with that of the aqueous sucrose standard solution, and evaluated the sweetness intensity in the same manner.
To seven examiners, 4 kinds of 10 mL aqueous sucrose standard solutions (2.5, 5.0, 7.5 and 10.0 wt %) were presented. The examiners kept each of the solutions in their mouth for 5 seconds or so, and then spat the solution out, and were asked to consider the sweetness intensity at that time (0 to 15) to be 2.5, 5, 7.5 and 10, respectively. Next, the examiners kept 10 mL aqueous solution of aspartame (494 ppm) in their mouth for 5 seconds or so without knowing the kind and the concentration of the sweetener, and then spat the solution out, and compared the sweetness intensity at that time with that of the aqueous sucrose standard solution, and evaluated the sweetness intensity with a number in a range of 0 to 15. The concentration of aspartame was prepared to have the same sweetness intensity as that of the aqueous sucrose solution (7.5 wt %) in accordance with the reference (Schiffman, S. S. et al. Chemical senses, 1999, 24, 439-447.). In addition, after 30 seconds, the examiners kept 10 mL pure water in their mouth, and then spat the solution out, and compared the sweetness intensity felt at that time with that of the aqueous sucrose standard solution, and evaluated the sweetness intensity in the same manner. Subsequently, the examiners were presented with 10 mL aqueous solution of aspartame containing 5 mM trans-3-octenyl sulfate (494 ppm), and kept it in their mouth for 5 seconds or so, and then spat the solution out, and compared the sweetness intensity at that time with the sweetness intensity of the sucrose standard solution, and evaluated the sweetness intensity in the same manner. In addition, after 30 seconds, the examiners kept 10 mL pure water in their mouth, and then spat the solution out, and compared the sweetness intensity felt at that time with that of the aqueous sucrose standard solution, and evaluated the sweetness intensity in the same manner. […]

[4] = Action of reinforcing sweetness (previous intake of trans-3-octenyl sulfate); settings: scale 0 to 15, six examiners
Experimental: To six examiners, 4 kinds of 10 mL aqueous solutions of sucrose standard (2.5, 5.0, 7.5 and 10.0 wt %) were presented. The examiners kept each of the solutions in their mouth for 5 seconds or so, and then spat the solution out, and were asked to consider the sweetness intensity at that time (0 to 15) to be 2.5, 5, 7.5 and 10, respectively. Next, the examiners kept 10 mL aqueous solution of sucralose (0.25 mM) in their mouth for 5 seconds or so without knowing the kind and the concentration of the sweetener, and then spat the solution out, and compared the sweetness intensity at that time with that of the aqueous sucrose standard solution, and evaluated the sweetness intensity with a number in a range of 0 to 15. Subsequently, the examiners kept 10 mL solution of 5 mM trans-3-octenyl sulfate in advance in their mouth for 5 seconds or so in advance, and then spat the solution out, and after passage of 60 seconds, the examiners kept 10 mL aqueous solution of sucralose (0.25 mM) in their mouth for 5 seconds or so, and then spat the solution out, and compared the sweetness intensity at that time with that of the aqueous sucrose standard solution, and evaluated the sweetness intensity with a number in a range of 0 to 15.
To six examiners, 4 kinds of 10 mL aqueous sucrose standard solutions (2.5, 5.0, 7.5 and 10.0 wt %) were presented. The examiners kept each of the solutions in their mouth for 5 seconds or so, and then spat the solution out, and were asked to consider the sweetness intensity at that time (0 to 15) to be 2.5, 5, 7.5 and 10, respectively. Next, the examiners kept 10 mL aqueous solution of glycyrrhizin (0.25 mM) in their mouth for 5 seconds or so without knowing the kind and the concentration of the sweetener, and then spat the solution out, and compared the sweetness intensity at that time with that of the aqueous sucrose standard solution, and evaluated the sweetness intensity with a number in a range of 0 to 15. Subsequently, the examiners kept 10 mL solution of 5 mM trans-3-octenyl sulfate in their mouth for 5 seconds or so in advance, and then spat the solution out, and after passage of 60 seconds, the examiners kept 10 mL aqueous solution of glycyrrhizin (0.25 mM) in their mouth for 5 seconds or so, and then spat the solution out, and compared the sweetness intensity at that time with that of the aqueous sucrose standard solution, and evaluated the sweetness intensity with a number in a range of 0 to 15.

[5] = 1 wt % in water, 50 μL kept in mouth, then water (13 ml), six examiners (trans), four examiners (cis)
[6] = No previous intake of trans-3-octenyl sulfate, 10 mL sweetener 0.25 mM
[7] = Previous intake of 10 mL 5 mM trans-3-octenyl sulfate, 60 seconds before 10 mL sweetener 0.25 mM

CCCC/C=C\CCOS(=O)(=O)O [cis-3-octenyl sulfate]
No sweetness felt (number of examiners) [1, 5]: 0
Sweetness felt (number of examiners) [1, 5]: 4
Duration of sweetness ([1]; 1 wt %, 50 μL, then water): the sweetness lasted for a certain time
Examiners who recognized the sweetness by virtue of intake of water ([2]; 10 mL of 10 mM solution, then pure water every 30 seconds): seven out of the seven
Duration of sweetness ([2]; 10 mL of 10 mM solution, then pure water every 30 seconds for 5 minutes): the sweetness lasted for a certain time
Sweetness intensity (mean) ([2]; Time 0 minute, 10 mL of 10 mM solution kept 5 seconds, scale 0 to 15 vs sucrose standards, seven examiners): 0.0
Sweetness intensity (mean) ([2]; Time 0.5 minute, on keeping 10 mL pure water, after 10 mM solution, scale 0 to 15): 1.8
Sweetness intensity (mean) ([2]; Time 1 minute, on keeping 10 mL pure water, after 10 mM solution, scale 0 to 15): 3.2
Sweetness intensity (mean) ([2]; Time 1.5 minute, on keeping 10 mL pure water, after 10 mM solution, scale 0 to 15): 3.4
Sweetness intensity (mean) ([2]; Time 2 minute, on keeping 10 mL pure water, after 10 mM solution, scale 0 to 15): 2.6
Sweetness intensity (mean) ([2]; Time 2.5 minute, on keeping 10 mL pure water, after 10 mM solution, scale 0 to 15): 2.1
Sweetness intensity (mean) ([2]; Time 3 minute, on keeping 10 mL pure water, after 10 mM solution, scale 0 to 15): 1.4
Sweetness intensity (mean) ([2]; Time 3.5 minute, on keeping 10 mL pure water, after 10 mM solution, scale 0 to 15): 1.4
Sweetness intensity (mean) ([2]; Time 4 minute, on keeping 10 mL pure water, after 10 mM solution, scale 0 to 15): 0.9
Sweetness intensity (mean) ([2]; Time 4.5 minute, on keeping 10 mL pure water, after 10 mM solution, scale 0 to 15): 0.5
Sweetness intensity (mean) ([2]; Time 5 minute, on keeping 10 mL pure water, after 10 mM solution, scale 0 to 15): 0.5

OC[C@H]1O[C@@](CO)(O[C@H]2O[C@H](CO)[C@@H](O)[C@H](O)[C@H]2O)[C@@H](O)[C@@H]1O [Sucrose, sucrose]
Sweetness intensity (mean) When drinking water after 30 seconds [3]: 0.1
Sweetness intensity (mean) When drinking sample [3]: 7.1

OC[C@H]1O[C@H](O[C@]2(CCl)O[C@H](CCl)[C@@H](O)[C@@H]2O)[C@H](O)[C@@H](O)[C@H]1Cl [Sucralose, sucralose]
Sweetness intensity (mean) When drinking water after 30 seconds [3]: 0.4
Sweetness intensity (mean) When drinking sample [3]: 8.4
Sweetness intensity (mean) [4, 6]: 7.3
Sweetness intensity (mean) [4, 7]: 10.2

CC1(C)[C@@H](O[C@H]2O[C@H](C(=O)O)[C@@H](O)[C@H](O)[C@H]2O[C@@H]2O[C@H](C(=O)O)[C@@H](O)[C@H](O)[C@H]2O)CC[C@]2(C)[C@H]3C(=O)C=C4[C@@H]5C[C@@](C)(C(=O)O)CC[C@]5(C)CC[C@@]4(C)[C@]3(C)CC[C@@H]12 [Glycyrrhizin, glycyrrhizin]
Sweetness intensity (mean) When drinking water after 30 seconds [3]: 3.2
Sweetness intensity (mean) When drinking sample [3]: 4.1
Sweetness intensity (mean) [4, 6]: 3.4
Sweetness intensity (mean) [4, 7]: 7.3

COC(=O)[C@H](Cc1ccccc1)NC(=O)[C@@H](N)CC(=O)O [Aspartame, aspartame] (H-Asp-Phe-OMe)
Sweetness intensity (mean) When drinking water after 30 seconds [3]: 1.0
Sweetness intensity (mean) When drinking sample [3]: 7.1

From patent US10364216B2, “Alkenyl sulfate ester or salt thereof” (Kao Corporation, priority 2013, dated 2019)
